Assay results taken from PubChem BioAssay AID330 (DTP/NCI, 2004).
Where “and” joins values, the source holds several entries; their conditions need not be identical. Identical values can stand only once. Inconclusive results and toxic doses are left out. Rule for the calls: active = survival T/C of 150% or more; inactive = T/C below 125% in these data.

System: P388 leukemia ip, CD2F1 mice, survival T/C
Experiment: NCI In Vivo Anticancer Drug Screen. Data for tumor model P388 Leukemia (intraperitoneal) in CD2F1 (CDF1) mice
Settings: endpoint: median survival time, higher = longer survival
In short: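 Mice carrying the transplanted tumor received test compound or vehicle. Survival was recorded in each group, and the value is the treated-group measurement divided by that of the vehicle-treated control group.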

[1] = dose: 25.0 mg/kg/injection, schedule: Q01DX009 (ip), vehicle: Klucel (hydroxypropylcellulose) (HPC)
[2] = dose: 50.0 mg/kg/injection, schedule: Q01DX009 (ip), vehicle: Klucel (hydroxypropylcellulose) (HPC)
[3] = dose: 50.0 mg/kg/injection, schedule: Q01DX009 (ip), vehicle: saline with Tween-80
[4] = dose: 200.0 mg/kg/injection, schedule: Q01DX009 (ip), vehicle: saline with Tween-80
[5] = dose: 60.0 mg/kg/injection, schedule: Q01DX005 (ip), vehicle: saline with Tween-80
[6] = dose: 120.0 mg/kg/injection, schedule: Q01DX005 (ip), vehicle: saline with Tween-80
[7] = dose: 240.0 mg/kg/injection, schedule: Q01DX005 (ip), vehicle: saline with Tween-80
[8] = dose: 100.0 mg/kg/injection, schedule: Q01DX009 (ip), vehicle: saline with Tween-80

Measured: T/C

O=C(CCCCl)NN=C(c1ccccc1)c1ccccc1
inactive: dose: 42.0 mg/kg/injection, schedule: Q01DX009 (ip), vehicle: saline with Tween-80 100 % of control | dose: 84.0 mg/kg/injection, schedule: Q01DX009 (ip), vehicle: saline with Tween-80 97 % of control | dose: 168.0 mg/kg/injection, schedule: Q01DX009 (ip), vehicle: saline with Tween-80 95 % of control

CCOC(=O)CC(=O)c1ccc(C)cc1
inactive: dose: 100.0 mg/kg/injection, schedule: Q04DX003 (ip), vehicle: saline with Tween-80 100 % of control | dose: 200.0 mg/kg/injection, schedule: Q04DX003 (ip), vehicle: saline with Tween-80 104 % of control | dose: 400.0 mg/kg/injection, schedule: Q04DX003 (ip), vehicle: saline with Tween-80 109 % of control

N#Cc1cnc(N)c(C#N)c1
inactive: [1] 104 % of control | [2] 104 % of control

O=S(=O)(O)O.[W]
inactive: dose: 0.38 mg/kg/injection, schedule: Q01DX009 (ip), vehicle: saline with Tween-80 91 % of control | dose: 0.38 mg/kg/injection, schedule: Q01DX009 (ip), vehicle: saline 99 % of control | dose: 0.75 mg/kg/injection, schedule: Q01DX009 (ip), vehicle: saline 89 % of control and 96 % of control | dose: 1.5 mg/kg/injection, schedule: Q01DX009 (ip), vehicle: saline with Tween-80 100 % of control | dose: 1.5 mg/kg/injection, schedule: Q01DX009 (ip), vehicle: saline 98 % of control and 86 % of control | dose: 3.0 mg/kg/injection, schedule: Q01DX009 (ip), vehicle: saline with Tween-80 87 % of control | dose: 3.0 mg/kg/injection, schedule: Q01DX009 (ip), vehicle: saline 89 % of control and 94 % of control

CS/C(=N/N=C(\C)c1ccccn1)[Se][Se]/C(=N/N=C(\C)c1ccccn1)SC
inactive: dose: 6.25 mg/kg/injection, schedule: Q01DX009 (ip), vehicle: saline with Tween-80 90 % of control | dose: 12.5 mg/kg/injection, schedule: Q01DX009 (ip), vehicle: saline with Tween-80 97 % of control | [3] 93 % of control | [4] 93 % of control

c1ccc(OCc2nn3c(-c4ccccc4)nnc3s2)cc1
inactive: [5] 107 % of control | [6] 94 % of control | [7] 93 % of control

Cc1cccc(Cl)c1NC(=O)N(C)c1ccccc1
inactive: [5] 99 % of control | [6] 100 % of control | [7] 97 % of control

C=C(c1ccc(N(CC)CC)cc1)c1ccc(N(CC)CC)cc1
inactive: dose: 50.0 mg/kg/injection, schedule: Q01DX005 (ip), vehicle: saline with Tween-80 95 % of control | dose: 100.0 mg/kg/injection, schedule: Q01DX005 (ip), vehicle: saline with Tween-80 103 % of control | dose: 200.0 mg/kg/injection, schedule: Q01DX005 (ip), vehicle: saline with Tween-80 90 % of control

Cc1cc2nc3c(=O)[nH]c(=O)nc-3n(CCOC(=O)CCC(=O)O)c2cc1C
inactive: dose: 100.0 mg/kg/injection, schedule: Q04DX003 (ip), vehicle: saline sonified 104 % of control | dose: 200.0 mg/kg/injection, schedule: Q04DX003 (ip), vehicle: saline sonified 114 % of control

O=C(CSc1nc2ccccc2[nH]1)NCCO
inactive: [5] 98 % of control | [6] 97 % of control | [7] 100 % of control

Cc1cc(NCCCN(C)C)c2ccc3cc4ccccc4cc3c2n1
inactive: dose: 25.0 mg/kg/injection, schedule: Q04DX002 (ip), vehicle: saline with Tween-80 93 % of control | dose: 50.0 mg/kg/injection, schedule: Q04DX002 (ip), vehicle: saline with Tween-80 92 % of control | dose: 100.0 mg/kg/injection, schedule: Q04DX002 (ip), vehicle: saline with Tween-80 108 % of control and 94 % of control

NC(=NCCCCCCN=C(N)[N+](=O)[O-])N[N+](=O)[O-]
inactive: dose: 6.25 mg/kg/injection, schedule: Q01DX009 (ip), vehicle: Klucel (hydroxypropylcellulose) (HPC) 113 % of control and 123 % of control | dose: 12.5 mg/kg/injection, schedule: Q01DX009 (ip), vehicle: Klucel (hydroxypropylcellulose) (HPC) 105 % of control and 106 % of control | [1] 99 % of control and 106 % of control

O=C/C=C/c1ccc2c(c1)OC(CO)C(c1ccc(O)c(O)c1)O2 (configuration not stated)
inactive: dose: 3.12 mg/kg/injection, schedule: Q01DX005 (ip), vehicle: Klucel (hydroxypropylcellulose) (HPC) 86 % of control | dose: 6.25 mg/kg/injection, schedule: Q01DX005 (ip), vehicle: Klucel (hydroxypropylcellulose) (HPC) 91 % of control

S=C(N/N=C1/CCCC/C1=N/NC(=S)N1CCOCC1)N1CCOCC1
inactive: dose: 1.56 mg/kg/injection, schedule: Q01DX005 (ip), vehicle: saline with Tween-80 101 % of control and 103 % of control | dose: 3.12 mg/kg/injection, schedule: Q01DX005 (ip), vehicle: saline with Tween-80 99 % of control and 103 % of control and 104 % of control

CC(=O)NC(CS)C(=O)O (configuration not stated)
inactive: dose: 50.0 mg/kg/injection, schedule: Q01DX009 (ip), vehicle: saline 111 % of control and 88 % of control | dose: 100.0 mg/kg/injection, schedule: Q01DX009 (ip), vehicle: saline 103 % of control and 104 % of control and 111 % of control | dose: 200.0 mg/kg/injection, schedule: Q01DX009 (ip), vehicle: saline 99 % of control (2×) and 109 % of control

Nc1ncnn1Cc1ccccc1
inactive: dose: 25.0 mg/kg/injection, schedule: Q01DX009 (ip), vehicle: saline with Tween-80 104 % of control | [3] 100 % of control | [8] 101 % of control | [4] 102 % of control

COc1cc(CCN=Cc2cccnc2)c([N+](=O)[O-])cc1OC
inactive: dose: 50.0 mg/kg/injection, schedule: Q01DX005 (ip), vehicle: Klucel (hydroxypropylcellulose) (HPC) 101 % of control | dose: 100.0 mg/kg/injection, schedule: Q01DX005 (ip), vehicle: Klucel (hydroxypropylcellulose) (HPC) 100 % of control | dose: 200.0 mg/kg/injection, schedule: Q01DX005 (ip), vehicle: Klucel (hydroxypropylcellulose) (HPC) 100 % of control

NCCN1C(=O)c2ccccc2C1(O)c1ccc(Cl)cc1 (configuration not stated)
inactive: [2] 102 % of control | dose: 100.0 mg/kg/injection, schedule: Q01DX009 (ip), vehicle: Klucel (hydroxypropylcellulose) (HPC) 97 % of control | dose: 200.0 mg/kg/injection, schedule: Q01DX009 (ip), vehicle: Klucel (hydroxypropylcellulose) (HPC) 98 % of control

O=C(CC(O)c1ccccc1)Sc1ccccc1 (configuration not stated)
inactive: dose: 25.0 mg/kg/injection, schedule: Q04DX003 (ip), vehicle: Klucel (hydroxypropylcellulose) (HPC) 100 % of control | dose: 50.0 mg/kg/injection, schedule: Q04DX003 (ip), vehicle: Klucel (hydroxypropylcellulose) (HPC) 100 % of control | dose: 100.0 mg/kg/injection, schedule: Q04DX003 (ip), vehicle: Klucel (hydroxypropylcellulose) (HPC) 95 % of control

Cc1cnc2c([N+](=O)[O-])cc(C)c(C)c2c1
inactive: [3] 99 % of control | [8] 99 % of control | [4] 92 % of control

CCOC(=O)CNC(=O)NCc1ccccc1
inactive: [5] 108 % of control | [6] 90 % of control | [7] 96 % of control

Cc1nnc2c(NO)nccn12
inactive: dose: 75.0 mg/kg/injection, schedule: Q01DX001 (ip), vehicle: saline 99 % of control | dose: 150.0 mg/kg/injection, schedule: Q01DX001 (ip), vehicle: saline 101 % of control | dose: 300.0 mg/kg/injection, schedule: Q01DX001 (ip), vehicle: saline 96 % of control

C=C1CCC2C(C)(CCC(O)C2(C)C(=O)O)C1CCc1ccoc1 (configuration not stated)
inactive: dose: 20.0 mg/kg/injection, schedule: Q01DX005 (ip), vehicle: other 95 % of control | dose: 40.0 mg/kg/injection, schedule: Q01DX005 (ip), vehicle: other 100 % of control | dose: 80.0 mg/kg/injection, schedule: Q01DX005 (ip), vehicle: other 103 % of control | dose: 160.0 mg/kg/injection, schedule: Q01DX005 (ip), vehicle: other 95 % of control
